13 molecules from ChEMBL document CHEMBL5614439, “Targeting Thyroid-Stimulating Hormone Receptor: A Perspective on Small-Molecule Modulators and Their Therapeutic Potential” (J Med Chem, 2024) can be followed below.

As usually defined, the EC50 is the midpoint of the concentration-response curve. Broadly, the IC50 is the concentration that gives 50% inhibition.

For test [1], the target named is T1, Thyrotropin receptor (Homo sapiens, UniProt P16473). Briefly: Agonist activity at TSHR (unknown origin). The test is classed as functional.
T1 sequence (P16473 whole entry): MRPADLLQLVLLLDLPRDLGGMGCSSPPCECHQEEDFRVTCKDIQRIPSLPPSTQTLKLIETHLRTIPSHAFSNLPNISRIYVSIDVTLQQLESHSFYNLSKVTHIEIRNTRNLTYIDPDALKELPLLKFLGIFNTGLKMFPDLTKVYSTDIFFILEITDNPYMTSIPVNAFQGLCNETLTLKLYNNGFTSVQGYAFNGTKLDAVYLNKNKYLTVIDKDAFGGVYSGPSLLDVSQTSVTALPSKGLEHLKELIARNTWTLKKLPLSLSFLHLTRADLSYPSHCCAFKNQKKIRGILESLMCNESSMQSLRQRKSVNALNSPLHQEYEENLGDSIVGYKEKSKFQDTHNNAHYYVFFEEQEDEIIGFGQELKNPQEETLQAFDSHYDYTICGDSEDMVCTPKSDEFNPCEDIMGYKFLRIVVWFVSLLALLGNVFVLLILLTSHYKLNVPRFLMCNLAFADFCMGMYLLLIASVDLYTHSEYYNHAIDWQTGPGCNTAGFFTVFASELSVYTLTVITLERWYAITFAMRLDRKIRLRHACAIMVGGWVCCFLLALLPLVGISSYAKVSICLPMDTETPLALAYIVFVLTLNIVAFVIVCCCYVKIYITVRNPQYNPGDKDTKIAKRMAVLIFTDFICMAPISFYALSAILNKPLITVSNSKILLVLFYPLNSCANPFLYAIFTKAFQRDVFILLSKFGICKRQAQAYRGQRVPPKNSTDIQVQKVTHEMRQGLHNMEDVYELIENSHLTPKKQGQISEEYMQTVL
In test [2] the target is T1, Thyrotropin receptor. Briefly: Agonist activity at TSHR (unknown origin) expressed in CHO cells. The test is classed as functional, cell-based.
Test [3] deals with T1, Thyrotropin receptor. The test can be described thus: Agonist activity at N-terminal HA-tagged TSHR (unknown origin) assessed as intracellular calcium level measured for 60 mins by HTS assay. The test is classed as functional, cell-based.
For test [4], the target named is Lutropin-choriogonadotropic hormone receptor (Homo sapiens, UniProt P22888). The test can be described thus: Agonist activity at LHCGR (unknown origin). The test is classed as functional.
Chain of Lutropin-choriogonadotropic hormone receptor (P22888 whole entry): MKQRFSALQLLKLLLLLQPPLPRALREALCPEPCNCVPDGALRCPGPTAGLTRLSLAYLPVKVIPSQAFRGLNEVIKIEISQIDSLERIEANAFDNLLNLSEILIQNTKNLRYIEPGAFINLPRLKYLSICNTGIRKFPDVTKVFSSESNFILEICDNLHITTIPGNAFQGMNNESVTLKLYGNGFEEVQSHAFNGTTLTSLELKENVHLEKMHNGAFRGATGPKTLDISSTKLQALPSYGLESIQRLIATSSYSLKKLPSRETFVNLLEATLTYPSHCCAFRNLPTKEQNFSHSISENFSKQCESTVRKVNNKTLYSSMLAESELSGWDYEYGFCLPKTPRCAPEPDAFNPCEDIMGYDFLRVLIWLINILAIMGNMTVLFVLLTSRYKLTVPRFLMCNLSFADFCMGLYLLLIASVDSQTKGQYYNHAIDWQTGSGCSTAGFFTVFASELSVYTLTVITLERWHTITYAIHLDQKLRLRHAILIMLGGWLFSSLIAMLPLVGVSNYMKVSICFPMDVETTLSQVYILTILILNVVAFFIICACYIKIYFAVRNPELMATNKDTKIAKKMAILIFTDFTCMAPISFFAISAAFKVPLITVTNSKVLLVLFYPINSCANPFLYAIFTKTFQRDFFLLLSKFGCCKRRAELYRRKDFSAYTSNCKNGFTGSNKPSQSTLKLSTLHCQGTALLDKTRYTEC
Test [5] has as its target T1, Thyrotropin receptor. Briefly: Agonist activity at N-terminal HA-tagged TSHR (unknown origin) stably expressed in CHO cells assessed as change in intracellular […] level incubated for 60 mins by CRE-driven luciferase reporter based microplate reader. The format is functional, cell-based. Background: A change in cytosolic calcium serves as a functional read-out for many receptors and channels.

Test [6] addresses T2, Follicle-stimulating hormone receptor (Homo sapiens, UniProt P23945).
T2 sequence (P23945 whole entry): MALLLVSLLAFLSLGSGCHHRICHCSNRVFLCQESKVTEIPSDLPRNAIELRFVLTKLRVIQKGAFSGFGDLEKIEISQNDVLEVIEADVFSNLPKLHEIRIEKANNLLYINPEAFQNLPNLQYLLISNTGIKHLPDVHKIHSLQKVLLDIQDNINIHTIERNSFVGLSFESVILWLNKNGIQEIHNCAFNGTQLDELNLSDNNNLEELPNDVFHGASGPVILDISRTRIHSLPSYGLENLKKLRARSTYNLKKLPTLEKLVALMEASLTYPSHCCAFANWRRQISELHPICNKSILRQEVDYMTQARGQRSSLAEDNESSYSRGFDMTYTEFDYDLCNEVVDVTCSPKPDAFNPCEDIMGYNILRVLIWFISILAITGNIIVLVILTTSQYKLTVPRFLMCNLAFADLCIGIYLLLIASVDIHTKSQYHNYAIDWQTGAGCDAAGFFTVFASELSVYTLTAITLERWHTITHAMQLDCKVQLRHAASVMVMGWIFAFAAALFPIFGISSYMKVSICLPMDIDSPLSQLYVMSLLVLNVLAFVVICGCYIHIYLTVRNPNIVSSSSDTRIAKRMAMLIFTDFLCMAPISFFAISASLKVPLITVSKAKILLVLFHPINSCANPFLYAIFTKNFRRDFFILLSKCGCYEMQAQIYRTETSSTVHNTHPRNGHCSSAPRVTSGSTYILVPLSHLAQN
Briefly: Agonist activity at FSHR (unknown origin). The format is functional.

In test [7] the target is T1, Thyrotropin receptor. Briefly: Agonist activity at TSHR (unknown origin) stably expressed in HEK293 cells assessed as intracellular cAMP accumulation incubated for 1 hr. The format is functional, cell-based.
Test [8] deals with T1, Thyrotropin receptor. The test can be described thus: Inverse agonist activity at TSH receptor (unknown origin) stably expressed in HEK293 cells assessed as reduction in TSH-induced cAMP production incubated for 40 mins by ELISA analysis. The format is functional, cell-based. (In general: Changes in cAMP serve as a functional read-out for many G protein-coupled receptors.)

A short description of test [9]: Inhibition of b-TSH-induced C-terminal GFP-tagged mouse TSHR activation expressed in HEK293 cells by cAMP assay. The format is cell-based.

As for `CCCc1ccc(-c2cc(C(=O)NCc3ccncc3)c3ccccc3n2)cc1`, the EC50 at Thyrotropin receptor [1] and at Thyrotropin receptor [2] was 8.3 nM in each case.
In the case of `CNc1nc(-c2c(-c3ccccc3)[nH]c3ccccc23)cs1`, on Thyrotropin receptor [3], the EC50 came out at 12300 nM.
With `CC(C)N(C(=O)c1cc(-c2ccccc2)nc2ccccc12)C(C)C`, the EC50 in test [4] is greater than 10000 nM; on Thyrotropin receptor [5], 130 nM.
`CC(c1ccccc1)c1nc(N2CCNCC2)nc2ccccc12` (stereo unspecified): it took 11.6 nM to reach a half-maximal effect on Thyrotropin receptor [1] (EC50).
Regarding `CC1=C(C(=O)OCc2ccccc2)C(c2ccc(C(F)(F)F)cc2)NC(=O)N1` (stereo unspecified), the EC50 in [4] is greater than 10000 nM; on Thyrotropin receptor [5] it was 540 nM.
In turn, `COc1ccc(C2Nc3ccccc3C(=O)N2Cc2ccco2)cc1COc1c(C)cccc1C` (stereo unspecified) showed a 50% effective concentration (EC50) in [4] of 480 nM. In test [6], the IC50 is 4600 nM.
At Thyrotropin receptor [2], `COC/C=C/c1ccc(-c2nc(SC)nc3sc(C(=O)NC(C)(C)C)c(N)c23)cc1` displayed an EC50 of 4.2 nM.
For `COc1ccc(C2Nc3ccccc3C(=O)N2Cc2ccco2)cc1COc1ccc(NC(C)=O)cc1` (stereo unspecified), the 50% effective concentration (EC50) on Thyrotropin receptor [7] stood at 600 nM.
In the case of `COc1ccc(C2Nc3ccccc3C(=O)N2Cc2ccco2)cc1COc1c(C)cc(NC(C)=O)cc1C` (stereo unspecified), the concentration giving a half-maximal response (EC50) in test [4] was greater than 30000 nM. Besides, the half-maximal inhibitory concentration (IC50) at Thyrotropin receptor [8] was 2300 nM; in test [6], greater than 30000 nM.
`COc1ccc(C2Nc3cccc(O)c3C(=O)N2Cc2ccccc2)cc1COc1ccc(NC(C)=O)cc1` (stereo unspecified): the 50% effective concentration (EC50) on Thyrotropin receptor [7] came out at 40 nM.
Consider `COc1cccc(-c2nc(SC)nc3sc(C(=O)NC(C)(C)C)c(N)c23)c1`, for which the concentration for a half-maximal effect (EC50) in test [4] was 350 nM.
In test [9], `O=C1[C@@H]2[C@H]3C[C@H]([C@@H]4Sc5[nH]c(=O)sc5[C@@H](c5ccccc5)[C@H]34)[C@@H]2C(=O)N1c1ccccc1` returned a half-maximal inhibitory concentration (IC50) of 40000 nM.
As to `COc1ccc(C2Nc3ccccc3C(=O)N2Cc2cccnc2)cc1COc1c(C)cccc1C` (stereo unspecified), in test [4], the EC50 is greater than 30000 nM. Moreover, the IC50 at Thyrotropin receptor [8] was 3500 nM; in test [6], greater than 30000 nM.
